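Tested at 5 concentrations; 48 h exposure; 96-well plates; endpoints linearly interpolated, else capped at highest concentration. GI50 = concentration required for 50% inhibition of growth.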 Calls of active or inactive are those of the source. Cut-off read from the data, not from the text of the source: active = GI50 up to about 1.1 µM and inactive = higher.
Legend:
Assay in all cases: growth of human tumour cells (NCI), 48 h
UACC-257 = tested on: UACC-257
EKVX = tested on: EKVX
LOX IMVI = tested on: LOX IMVI
HCT-15 = tested on: HCT-15
MDA-MB-231 = tested on: MDA-MB-231
SK-OV-3 = tested on: SK-OV-3
RPMI-8226 = tested on: RPMI-8226
SF-268 = tested on: SF-268
SF-295 = tested on: SF-295
HL-60 = tested on: HL-60
SK-MEL-2 = tested on: SK-MEL-2
U-251 = tested on: U-251
KM12 = tested on: KM12
UACC-62 = tested on: UACC-62
A549 = tested on: A549
OVCAR-8 = tested on: OVCAR-8
HOP-62 = tested on: HOP-62
T47D = tested on: T47D
SF-539 = tested on: SF-539
SK-MEL-28 = tested on: SK-MEL-28

SMILES | GI50 (UACC-257) | GI50 (EKVX) | GI50 (LOX IMVI) | GI50 (HCT-15) [µM] | GI50 (MDA-MB-231) | GI50 (SK-OV-3) | GI50 (RPMI-8226) | GI50 (SF-268) | GI50 (SF-295) | GI50 (HL-60) | GI50 (SK-MEL-2) | GI50 (U-251) | GI50 (KM12) | GI50 (UACC-62) | GI50 (A549) | GI50 (OVCAR-8) | GI50 (HOP-62) | GI50 (T47D) | GI50 (SF-539) | GI50 (SK-MEL-28)
CCCN1CN(c2ccccc2)C2(CCN(CCCC(=O)c3ccc(F)cc3)CC2)C1=O | 0.405 µM (active) | 14 µM (inactive) | 4.41 µM (inactive) | 4.31 | 6.93 µM (inactive) | 19.1 µM (inactive) | 12.4 µM (inactive) | 5.56 µM (inactive) | 11 µM (inactive) | 16.6 µM (inactive) | 11.6 µM (inactive) | 14.7 µM (inactive) | 16.3 µM (inactive) | 16.3 µM (inactive) | 6.61 µM (inactive) | 16.7 µM (inactive) | 2.7 µM (inactive) | 4.61 µM (inactive) | 4.49 µM (inactive) | 19.2 µM (inactive)
COc1ccc(N2C(=O)C(=O)N(c3ccc(/N=N\c4ccccc4)cc3)C2=S)cc1 | 18.4 µM (inactive) | 17.9 µM (inactive) | 18.7 µM (inactive) | 17.2 | 22.8 µM (inactive) | 20.2 µM (inactive) | 40.7 µM (inactive) | 22.1 µM (inactive) | 18.7 µM (inactive) | 47.3 µM (inactive) | 17.9 µM (inactive) | 17.1 µM (inactive) | 17.5 µM (inactive) | 16.6 µM (inactive) | 20.2 µM (inactive) | 17.9 µM (inactive) | 18.6 µM (inactive) | 18.8 µM (inactive) | 19.2 µM (inactive) | 23.2 µM (inactive)
Nc1cccnc1NCC1(CO)CCCC1 | > 100 µM (inactive) | > 100 µM (inactive) | > 100 µM (inactive) | > 100 | > 100 µM (inactive) | > 100 µM (inactive) | > 100 µM (inactive) | > 100 µM (inactive) | > 100 µM (inactive) | > 100 µM (inactive) | > 100 µM (inactive) | > 100 µM (inactive) | > 100 µM (inactive) | > 100 µM (inactive) | > 100 µM (inactive) | > 100 µM (inactive) | > 100 µM (inactive) | > 100 µM (inactive) | > 100 µM (inactive) | > 100 µM (inactive)
NC1=Nc2ccccc2Sc2cccc(F)c21 | 46.3 µM (inactive) | 50.9 µM (inactive) | 99.5 µM (inactive) | > 100 | > 100 µM (inactive) | > 100 µM (inactive) | 36 µM (inactive) | > 100 µM (inactive) | 40.4 µM (inactive) | 24 µM (inactive) | > 100 µM (inactive) | 85.9 µM (inactive) | 97.7 µM (inactive) | 60.3 µM (inactive) | 57.5 µM (inactive) | > 100 µM (inactive) | > 100 µM (inactive) | 62.2 µM (inactive) | > 100 µM (inactive) | > 100 µM (inactive)
O=c1cc(CNC2CC3CCC2C3)[nH]c(=O)[nH]1 (stereo not given) | > 100 µM (inactive) | > 100 µM (inactive) | > 100 µM (inactive) | > 100 | > 100 µM (inactive) | > 100 µM (inactive) | > 100 µM (inactive) | > 100 µM (inactive) | > 100 µM (inactive) | > 100 µM (inactive) | > 100 µM (inactive) | > 100 µM (inactive) | > 100 µM (inactive) | > 100 µM (inactive) | > 100 µM (inactive) | > 100 µM (inactive) | > 100 µM (inactive) | > 100 µM (inactive) | > 100 µM (inactive) | > 100 µM (inactive)
COc1ccc(C(=O)N/N=C2\C(=O)c3c(C)cc(C)cc3CC2(C)C)cc1 | 29.8 µM (inactive) | 22.5 µM (inactive) | 17.7 µM (inactive) | 22.8 | 19.7 µM (inactive) | 29.2 µM (inactive) | 17.1 µM (inactive) | 17.3 µM (inactive) | 19.6 µM (inactive) | 18.3 µM (inactive) | 18.9 µM (inactive) | 17.1 µM (inactive) | 19.1 µM (inactive) | 15.1 µM (inactive) | 19.4 µM (inactive) | 20.9 µM (inactive) | 18 µM (inactive) | 13.7 µM (inactive) | 20.5 µM (inactive) | 19.7 µM (inactive)
CC1=CC(C)(C)[C@H]2O[C@@]3(O)C[C@]4(C)[C@H]5C[C@@](C(C)C)(O[C@H]4c4ccoc4)O[C@H]4[C@]5(C3)O[C@@]1(O)[C@]24O | > 100 µM (inactive) | > 100 µM (inactive) | > 100 µM (inactive) | > 100 | 81.3 µM (inactive) | > 100 µM (inactive) | > 100 µM (inactive) | > 100 µM (inactive) | > 100 µM (inactive) | > 100 µM (inactive) | > 100 µM (inactive) | 74 µM (inactive) | > 100 µM (inactive) | > 100 µM (inactive) | 75.9 µM (inactive) | > 100 µM (inactive) | 23.5 µM (inactive) | > 100 µM (inactive) | > 100 µM (inactive) | 81.8 µM (inactive)
CC(=O)Nc1ccc(C2SCc3nc4ccccc4n32)cc1 (stereo not given) | 57.4 µM (inactive) | 87.9 µM (inactive) | 63.8 µM (inactive) | 47.3 | 26.2 µM (inactive) | > 100 µM (inactive) | 47.6 µM (inactive) | 55.2 µM (inactive) | 87.9 µM (inactive) | 82 µM (inactive) | > 100 µM (inactive) | 73.3 µM (inactive) | > 100 µM (inactive) | > 100 µM (inactive) | > 100 µM (inactive) | 37.7 µM (inactive) | > 100 µM (inactive) | 48.9 µM (inactive) | > 100 µM (inactive) | > 100 µM (inactive)
CNC(=O)OCc1c(COC(=O)NC)c(-c2ccc(Cl)c(Cl)c2)n2c1SCC2 | 10.4 µM (inactive) | 19.8 µM (inactive) | 12.4 µM (inactive) | 13 | 10.8 µM (inactive) | 6.21 µM (inactive) | 12.2 µM (inactive) | 13.3 µM (inactive) | 13.6 µM (inactive) | 7.29 µM (inactive) | 11.7 µM (inactive) | 7.85 µM (inactive) | 17.5 µM (inactive) | 5.74 µM (inactive) | 23.2 µM (inactive) | 3.85 µM (inactive) | 17.8 µM (inactive) | 8.81 µM (inactive) | 15.5 µM (inactive) | 10.8 µM (inactive)
O=C1CCc2ccc(O)c(c2)Oc2ccc(cc2)C(Sc2ccccc2)CCO1 (stereo not given) | 16 µM (inactive) | 12.5 µM (inactive) | 12.5 µM (inactive) | 13.7 | 3.85 µM (inactive) | 34.3 µM (inactive) | 13.5 µM (inactive) | 15.7 µM (inactive) | 17.4 µM (inactive) | 17.7 µM (inactive) | 15.8 µM (inactive) | 16 µM (inactive) | 15 µM (inactive) | 15.1 µM (inactive) | 18.6 µM (inactive) | 18.1 µM (inactive) | 12.9 µM (inactive) | 7.74 µM (inactive) | 15.8 µM (inactive) | 15.4 µM (inactive)

— ChEMBL document CHEMBL1201862, “PubChem BioAssay data set” (2004)
